Reference: patent US20240269287A1, “MICROBUBBLE-ASSISTED ULTRASOUND-GUIDED THERAPY” (THE BOARD OF REGENTS OF THE UNIVERSITY OF TEXAS SYSTEM, priority 2021, published 2024)

Legend:
STING pathway in BMDMs = test: STING signaling after treatment (qRT-PCR, ELISA, western blot, immunostaining); assay type: cell-based, mouse
Method: Mouse BMDMs and human THP-1 cells were cultured as described above.

[1] = test system: EO771 orthotopic breast tumors; test: Tumor growth and survival; assay type: in vivo, mouse; details: wild type mice, three intratumoral treatments every other day, 100 μg cGAMP
Method: Orthotopic mammary fat pad tumors were established as in Example 9. […] The mice were injected intratumorally with 20 μL of solution infused at 1 μL/second using a syringe pump. […] The mice were treated every other day for a total of three treatments (days 13, 15, and 17). US, where part of the treatment group, was applied by using acoustic coupling gel and a 1-MHz plane wave transducer operating at 4 W/cm^2 for 60 seconds and a 50% duty cycle given to opposite sides of the tumor for a total treatment time of 120 seconds. At 18 days post tumor inoculation treated mice were sacrificed.
Tumor sizes were measured every two days using digital calipers, and tumor volume was calculated according to an ellipsoid formula as 0.5×length×width^2. Mice were sacrificed if any tumor ulceration was observed or if tumors reached 2000 mm^3 in volume. The final tumor volume comparison between the MUSIC and control groups was done when the first mice from a control group was sacrificed. […] Statistical analysis was done using an unpaired t-test for tumor sizes and Log-rank test for survival curves.

BMDMs = assay type: cell-based, mouse
Method: Mouse bone marrow-derived macrophages (BMDMs) were isolated from the hind leg femur bone marrow of C57BL/6J mice and were cultured or activated with macrophage colony-stimulating factor (M-CSF, 50 ng ml-1) according to standardized procedures. The purity of the induced cells was assessed by flow cytometry for CD45+CD11b+ cells.
One day before treatment, cells were plated at 400,000 cells/well in a 12 well plate. […] […] Plates were flipped upside down and left to incubate for 10 min at 37° C. Cells were diluted to 2.5 mL with PFB-saturated RPMI, placed on top of a water bath set to 37° C., then sonoporated at 1 MHz, with 1 W/cm^2 power density, 20% duty cycle (DC) for 60 seconds (SONITRON® GTS, 15 mm diameter). Fluorescence microscopy images were taken at different time points (0, 3, 6, 12, 24, and 48 h).

Row | Compound | STING or IRF-3 phosphorylation (western blot) (STING pathway in BMDMs) | mice with complete tumor remission / complete response [1] | uptake of diGMP (fluorescence microscopy) (BMDMs)
1 | Nc1nc2c(ncn2[C@@H]2O[C@@H]3COP(=O)(O)O[C@H]4[C@@H](O)[C@H](n5cnc6c(N)ncnc65)O[C@@H]4COP(=O)(O)O[C@@H]2[C@@H]3O)c(=O)[nH]1 [cGAMP, cyclic guanosine monophosphate-adenosine monophosphate] | no STING or IRF-3 phosphorylation | 2 out of 10 | 
2 | 2′-O-(6-[DY547]-aminohexylcarbamoyl)-cyclic diguanosine monophosphate [diGMP only] |  |  | weak uptake
